Measurements reported in patent US6458838B1, “Adrenoleukodystrophy treatments” (Johns Hopkins University, priority 1999, dated 2002).
Several values for one entry are separate records, joined by “and”; a condition that tells them apart may be missing. Equal values may be shown once. Entries after “also recorded” stand apart in the source; their conditions may differ.

Experiments:
acyl-CoA oxidase (AOX) = test: Semi-quantitative RT-PCR in primary fibroblasts; assay type: cell-based; settings: 5 mM 4-PBA
Procedure: (§1) Semi-quantitative RT-PCR was done on the mRNA isolated from these cells (FIG. 1). […] In addition, the expression of acyl-CoA oxidase (AOX), the rate-limiting enzyme in VLCFA β-oxidation, was not affected. Although previous studies have reported that ALDR mRNA was not detectable in fibroblasts by either northern or RT-PCR analyses, those RT-PCR studies used about 66 ng of CDNA; we used about 250 ng of cDNA.
In rodents PPARα expression is increased by peroxisomal proliferators. […] Thus, although the peroxisome proliferation response in mice may be, at least in part, through the documented PPARα pathway, the response in human cells seems to be through a newly discovered pathway that may involve Pex11α. […] This again indicates a newly discovered pathway for 4-PBA-induced peroxisome proliferation in humans and perhaps in rodents. AOX has been identified as the rate-limiting step in VLCFA β-oxidation.
(§2) Semi-quantitative RT-PCR analysis. Total RNA from tissue culture cells (10^6-10^7 cells/sample) was isolated using TRizol Reagent™ (Life Technologies), treated with DNase I (100-200 units in 40 mM HCI, 10 mM NaCl, 6 mM MgCl2, pH 7.3), incubated at 37° C. for 30 min, extracted with phenol/chloroform, and precipitated with isopropanol. cDNA was generated using MMLV reverse transcriptase (RT) (Life Technologies). PCR was done in the linear range of amplification (determined for each primerpair-cDNA combination). For each cDNA sample, a ‘cocktail’ was prepared, containing PCR buffer (Promega), 200 µM of each DNTP, 1.5 mM MgCl2, 250 ng cDNA, 0.25 U of Taq polymerase (Promega) and […]. The ‘cocktail’ was divided into separate tubes containing cDNA specific primers.
Primers. The PCR primers used are listed below. In the parentheses, h indicates human and m, mouse; this is followed by the gene name, product size and annealing temperature. For primer sequences, F is forward and R is reverse. […]

ALDR mRNA = test: Semi-quantitative RT-PCR in primary fibroblasts; assay type: cell-based; settings: 5 mM 4-PBA for 2 days
Procedure: as §1, §2
Primers. The PCR primers used are listed below. In the parentheses, h indicates human and m, mouse; this is followed by the gene name, product size and annealing temperature. […]

X-ALD mice = test: In vivo efficacy: VLCFA levels in brain and adrenal glands after dietary 4-PBA; parameters: species or system mouse
Procedure: To measure the in vivo efficacy of 4-PBA, we supplemented mouse chow and water with 4-PBA.
AMN and Addison-only. […] In vivo delivery of 4-PBA to X-ALD mice. 4-PBA was delivered to X-ALD mice in their regular chow and water. 4-PBA chow was prepared by B'OServ (Holton Industries, Frenchtown, N.J.). […] Brains and adrenal glands from normal LD and X-ALD/4-PBA mice were collected for VLCFA analysis as described.
(§3) Biochemical measurements. […] For VLCFA measurements, total lipids were extracted, converted to methyl esters, purified by TLC and subjected to capillary GC analysis as described. Duplicate assays were set up independently and were assayed on different days. C24:0 β-oxidation activity of human and mouse fibroblasts and human lymphoblastoid cells was determined by measuring their capacity to degrade [1-^14C]-C24:0 fatty acid (American Radiolabeled Chemicals, St Louis, Mo.) to water-soluble products as described. Phytanic acid oxidation was measured as described. Cells were incubated with [2,3-^3H]-phytanic acid for 24 hours, and the release of ^3H-H2O to the aqueous medium was determined (activity in pmol/hr per mg protein).

[1] = tested on: human primary fibroblasts derived from X-ALD patients; test: VLCFA (C24:0, C26:0) levels in cultured cells, capillary GC; assay type: cell-based
Excerpt: (§4) The genotypes of the X-ALD patients included missense, nonsense, frame shift and deletion mutations and all of the main clinical phenotypes.
After two days of treatment, a time-dependent reduction in VLCFA levels in human and mouse X-ALD cell lines was observed. In human lymphoblastoid cells and mouse fibroblasts, C24:0 and C26:0 levels were normalized within 10 days of treatment, In human X-ALD fibroblasts, C24:0 levels were normalized within 10 days, whereas C26:0 levels were reduced by 47% after 22 days. The results obtained were independent of genotype or phenotype.
Cell culture and 4-PBA treatment. Cell lines derived from X-ALD patients and X-ALD mice were grown in MEM (fibroblasts) or RPMI (ymphoblastoid cells) supplemented with fetal calf serum (10%), penicillin (100 U/ml), streptomycin (100 U/mi) and glutamine (2 mM). […]
Biochemical measurements. […] C24:0 β-oxidation activity of human and mouse fibroblasts and human lymphoblastoid cells was determined by measuring their capacity to degrade [1-^14C]-C24:0 fatty acid (American Radiolabeled Chemicals, St Louis, Mo.) to water-soluble products as described. Phytanic acid oxidation was measured as described. Cells were incubated with [2,3-^3H]-phytanic acid for 24 hours, and the release of ^3H-H2O to the aqueous medium was determined (activity in pmol/hr per mg protein).

[2] = tested on: human lymphoblastoid cells (EBV-transformed lymphocytes) derived from X-ALD patients; test: as above; assay type: cell-based; settings: for C26:0 Percent Correction: 5 mM 4PBA
Procedure: as §4
Cell lines derived from X-ALD patients and X-ALD mice were grown in MEM (fibroblasts) or RPMI (ymphoblastoid cells) supplemented with fetal calf serum (10%), penicillin (100 U/ml), streptomycin (100 U/mi) and glutamine (2 mM). […] Cells in the second flask were grown without drug for the same length of time and served as controls. The media were changed every 3-4 days.
as §3

O=C(O)CCCc1ccccc1 [4-PBA, 4-Phenyl butyrate]
AOX expression (acyl-CoA oxidase (AOX); human fibroblasts, 2 days): not affected; also recorded: unchanged
AOX expression (acyl-CoA oxidase (AOX); human fibroblasts, 10 days): remained unchanged
AOX expression (acyl-CoA oxidase (AOX); mouse fibroblasts, 2 days): not affected; also recorded: unchanged
ALDR mRNA levels (ALDR mRNA; normal and X-ALD human primary fibroblasts): substantial increase
ALDR mRNA levels (ALDR mRNA; normal and X-ALD mouse primary fibroblasts): substantial increase
adrenal gland VLCFA (C24:0 and C26:0) levels (X-ALD mice; dietary 4-PBA for 4 weeks): substantial reduction
brain VLCFA (C24:0 and C26:0) levels (X-ALD mice; dietary 4-PBA for 4 weeks): substantial reduction
correction of brain C24:0 level (X-ALD mice; dietary 4-PBA for 6 weeks): complete correction; also recorded: complete normalization
correction of brain C26:0 level (X-ALD mice; dietary 4-PBA for 6 weeks): 78% and 80%
C26:0 levels reduced by ([1]; 5 mM 4-PBA, after 22 days): 47%
effect of concentration on VLCFA levels ([1]; between 1 mM and 5 mM 4-PBA, human X-ALD fibroblasts and lymphoblastoid cells, data not shown): dose-dependent decrease
time of treatment until C24:0 and C26:0 levels were normalized ([2]; 5 mM 4-PBA): ≤ 10 days
C26:0 Percent Correction ([2]; exposure 6 days): 71%
C26:0 Percent Correction ([2]; exposure 10 days): 90%
